Laboratory results: US4937371A, “Dihydroxynaphthalene derivatives” (Hoffmann-La Roche Inc., priority 1989, dated 1990)

How the values were obtained:
[1] = test system: LTB4 formation (Δ^5 -lipoxygenase (5-LO) pathway); test: Rat peritoneal macrophage assay, in vitro: LTB4 formation; format: cell-based; conditions: 0.5 h, rat peritoneal macrophages, 30 min incubation, A 23187-stimulated
Description: (§1) RAT PERITONEAL MACROPHAGE ASSAY, IN VITRO
(§2) The rat peritoneal macrophage assay measures the ability of a test compound to influence the release of arachidonic acid (AA) from phospholipid stores in the plasma membrane and the subsequent metabolism of AA by the Δ^5 -lipoxygenase (5-LO) and cyclooxygenase (CO) pathways to the final products excreted by the cells: leukotriene B4 (LTB4, from the 5-LO pathway) and prostaglandin E2 (PGE2, from the CO Pathway).
(§3) Macrophages were obtained from rats by peritoneal lavage with phosphate buffered saline minus Ca^+2 and Mg^+2 (PBS). Cells were washed 3 times with PBS and resuspended in Delbecco's Modified Eagle medium (Gibco Laboratories) containing L-glutamine and D-glucose and supplemented with 10% fetal calf serum. Cells were counted on a Coulter ZBA cell counter and then resuspended to a concentration of 4×10^6 cells/mL. […] The extracellular fluid was removed and ^14 C radioactivity released into this fluid from AA metabolism was measured by liquid scintillation spectroscopy. The amounts of LTB4 and PGE2 were measured in the extracellular fluid by radioimmunoassay with specific antisera. […]
(§4) This assay measures inhibition by the test compounds of the 5-LO and the CO pathways of AA metabolism and this inhibition is expressed as an IC50 for LTB4 and PGE2 formation, respectively.

[2] = test system: Myeloperoxidase accumulation (rat acetic acid colitis model); test: Acetic acid-induced colitis in rats, in vivo; set-up: species or system rat (Sprague-Dawley)
Description: Acetic Acid-Induced Colitis in Rats, In Vivo
The rat acetic acid-induced colitis bioassay has been described by J. E. Krawisz, et al. in Amer. J. Proc. Gastro. Col. Rec. Surg. 31: 11-18 (1980), and by P. Sharon and W. F. Stenson in Gastroenterolgy 88: 55-63 (1985) and 86:453-460 (1984). Acetic acid-induced colitis is characterized by the movement of inflammatory cells into the colon, with the number of such cells in the mucosa being measured by the activity of myeloperoxidase, a marker enzyme for these cells. Positive desirable activity is indicated by a reduction in the high levels of myeloperoxidase caused by acetic acid. Male rats (Sprague-Dawley), weighing 150 to 300 g, were pretreated twice daily for two days with either the vehicle (water, or dimethylsulfoxide) or the test inhibitor compound suspended in water or dissolved in dimethylsulfoxide and orally administered. On the third day, the animals were dosed the same as on the previous two days, anesthetized with metofane, and 2 ml of 2.5% acetic acid was injected by syringe into the colonic lumen, followed immediately by 3 ml of air and a rinse consisting of 3 ml of phosphate-buffered saline (the acetic acid is Present in the lumen for a sufficient period to cause inflammation without producing severe necrosis or irreversible damage). The animals were administered a second dose of the test compound in the same amount about 16 hours later. Twenty four hours after the acetic acid treatment, the animals were sacrificed, the colonic mucosa was surgically removed and homogenized in an aqueous buffer at pH 6 with a Tissumizer or similar device, and myeloperoxidase was measured in the homogenate using o-phenylenediamine as a chromagen, as described by A. Voller, D. E. Bidwell and A. Bartlett in The Enzyme Linked Immunosorbent Assay (ELISA), Zoological Soc., London, 1979, pages 29-30. Control animals were pretreated with the vehicle and saline in place of acetic acid.

[3] = test system: PGE2 formation (cyclooxygenase (CO) pathway); test: Rat peritoneal macrophage assay, in vitro: PGE2 formation; format: cell-based; conditions: 0.5 h, rat peritoneal macrophages, 30 min incubation, A 23187-stimulated
Description: as §1, §2, §3, §4

[4] = molecular target: T1, Δ^5 -lipoxygenase from rat basophilic leukemia (RBL-1) cells (Rattus norvegicus, UniProt P12527); test: In vitro test for Δ^5-lipoxygenase inhibitors (RBL-1 cell supernatant); format: biochemical; conditions: Δ^5-lipoxygenase from RBL-1 cells; 10 min preincubation at 30° C.; 6.7 μM arachidonic acid; 37° C.; pH 7.2
T1 construct: The Δ^5 -lipoxygenase was derived from the supernatant fraction of lysed RBL-1 cells; endogenous in cells; host or cells: RBL-1 (rat basophilic leukemia) cells, 49,000 g supernatant of the homogenate
T1 sequence (P12527 1-673): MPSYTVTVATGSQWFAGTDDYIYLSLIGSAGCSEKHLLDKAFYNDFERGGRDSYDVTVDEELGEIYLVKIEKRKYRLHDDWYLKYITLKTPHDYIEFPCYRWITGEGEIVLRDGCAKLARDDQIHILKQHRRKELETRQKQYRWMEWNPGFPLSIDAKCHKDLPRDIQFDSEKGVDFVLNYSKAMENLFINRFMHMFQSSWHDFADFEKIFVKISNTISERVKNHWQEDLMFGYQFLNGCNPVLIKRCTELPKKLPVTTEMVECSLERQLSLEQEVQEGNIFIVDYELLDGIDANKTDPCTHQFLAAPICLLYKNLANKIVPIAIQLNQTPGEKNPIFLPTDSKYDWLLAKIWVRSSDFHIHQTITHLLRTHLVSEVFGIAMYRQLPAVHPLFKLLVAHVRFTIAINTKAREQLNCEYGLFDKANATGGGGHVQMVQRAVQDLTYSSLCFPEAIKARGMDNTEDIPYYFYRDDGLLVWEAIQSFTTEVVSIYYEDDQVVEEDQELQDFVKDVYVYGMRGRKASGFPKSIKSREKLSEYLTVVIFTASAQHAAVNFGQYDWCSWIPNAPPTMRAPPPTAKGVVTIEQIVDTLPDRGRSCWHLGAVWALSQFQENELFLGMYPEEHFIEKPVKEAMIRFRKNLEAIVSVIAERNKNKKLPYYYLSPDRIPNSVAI
Procedure: IN VITRO TEST FOR Δ^5 -LIPOXYGENASE INHIBITORS
Compounds of formula I of the invention were tested for their effect on Δ^5 -lipoxygenase from rat basophilic leukemia (RBL-1) cells. The activity of this enzyme was determined by measuring the catalytic conversion of [1-^14 C]arachidonic acid to [1-^14 C-5-hydroperoxy- 6,8,11,14-eicosatetraenoic acid ([1-^14 C]-5-HPETE) which leads to the formation of the 5-hydroxy derivative ([1-^14 C]-5-HETE). The Δ^5 -lipoxygenase was derived from the supernatant fraction of lysed RBL-1 cells using a modification of the method previously described by Jakschik and Lee [Nature 287:51 (1980)]. Briefly, RBL-1 cells were lysed by homogenization in ice-cold buffer (50 mM Tris-HCl buffer, pH 7.2, containing 1 mM EDTA and 14 μM indomethacin). The homogenate was centrifuged at 4° C. and 49,000 g for 20 minutes and the resulting supernatant fraction was used as the source of Δ^5 -lipoxygenase. […] The ethereal extract containing [1-^14 C]-5-HETE and unreacted substrate analyzed by silica gel TLC using isooctane-methylethyl ketone acetic acid (100:9:1) as the developing solvent. […] The effect of inhibitors on Δ^5 -lipoxygenase activity was determined by preincubating the enzyme for 10 minutes at 30° C. in the presence or absence of various concentrations of the drug prior to addition of substrate. […]

Row | Structure (SMILES) | % Inhibition of Myeloperoxidase Accumulation ([2]; 10 mg/kg p.o.) | % Inhibition of Myeloperoxidase Accumulation ([2]; 1 mg/kg p.o.) | further results
1 | CCCc1c(OCCCCc2ccc3cc(O)c(O)cc3c2)ccc(C(=O)O)c1O [4-[4-(6,7-Dihydroxy-2-naphthalenyl)butoxy]-2-hydroxy-3-propylbenzoic acid] |  |  | IC50 [1]: 3 µM; % Inhibition of Myeloperoxidase Accumulation ([2]; 3 mg/kg p.o.): 82 ± 8%; IC50 [3]: 2 µM; IC50 [4]: 0.0047 µM
2 | CCCc1c(OCCCCc2ccc3c(Cl)c(O)c(O)c(Cl)c3c2)ccc(C(=O)O)c1O [4-[4-(5,8-Dichloro-6,7-dihydroxy-2-naphthalenyl)butoxy]-2-hydroxy-3-propylbenzoic acid] | 71 ± 7% |  | 
3 | O=C(O)c1ccc(OCCCCCCc2ccc3cc(O)c(O)cc3c2)cc1 [4-[6-(6,7-Dihydroxy-2-naphthalenyl)hexyloxy]benzoic acid] | 68 ± 13% |  | 
4 | O=C(O)c1ccc(OCCCCCCc2ccc3cc(O)c(O)cc3c2)cc1O [4-[6-(6,7-Dihydroxy-2-naphthalenyl)hexyloxy]-2-hydroxybenzoic acid] |  | 65 ± 9% | 
5 | CCCc1c(OCCCc2ccc3cc(O)c(O)cc3c2)ccc(C(=O)O)c1O [4-[3-(6,7-Dihydroxy-2-naphthalenyl)propoxy]-2-hydroxy-3-propylbenzoic acid] |  | 21 ± 4% | 
6 | CCCc1c(OCCCCCCc2ccc3cc(O)c(O)cc3c2)ccc(C(=O)O)c1O [4-[6-(6,7-dihydroxy-2-naphthalenyl)hexyloxy]-2-hydroxy-3-propylbenzoic acid] |  | 46 ± 12% | 
7 | CCCc1c(OCCc2ccc3cc(O)c(O)cc3c2)ccc(C(=O)O)c1O [4-[2-(6,7-Dihydroxy-2-naphthalenyl)ethoxy]-2-hydroxy-3-propylbenzoic acid] | 60 ± 13% |  | 
8 | CCCc1c(OCCCCC(=O)c2ccc3cc(O)c(O)cc3c2)ccc(C(=O)O)c1O [4-[[5-(6,7-Dihydroxy-2-naphthalenyl)-5-oxopentyl]oxy]-2-hydroxy-3-propylbenzoic acid] |  |  | % Inhibition of Myeloperoxidase Accumulation ([2]; 30 mg/kg p.o.): 80 ± 18%
9 | CCCc1c(OCCCCCc2ccc3cc(O)c(O)cc3c2)ccc(C(=O)O)c1O [4-[5-(6,7-Dihydroxy-2-naphthalenyl)pentyloxy]-2-hydroxy-3-propylbenzoic acid] | 56 ± 11% |  | 
10 | CCCc1c(OCCCCCC(=O)c2ccc3cc(O)c(O)cc3c2)ccc(C(=O)O)c1O [4-[[6-(6,7-dihydroxy-2-naphthalenyl)-6-oxohexyl]oxy]-2-hydroxy-3-propylbenzoic acid] |  |  | IC50 [1]: 3 µM; IC50 [3]: 2 µM
